From patent publication US10758534B2 (Vertex Pharmaceuticals Incorporated, priority 2014, dated 2020)

biological target: T1, F508del (Homo sapiens, UniProt P13569, DEL508-508); experiment: Protocol 1: membrane potential optical assay (FLIPR III, voltage sensing dye), identification of potentiator compounds; type: cell-based; details: Table 3, compounds of Table 1
T1 construct: expressed in transfected cells
Outline: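 NIH 3T3 fibroblasts stably expressing F508del were cultured at 27° C for 24 hrs for temperature correction, then treated with compounds or DMSO and loaded with a voltage-sensing redistribution dye. Forskolin added with a Cl⁻ gradient activated the channel; membrane-potential fluorescence on FLIPR III reported increased gating.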

T1 sequence (P13569 with tags, fused parts or gaps DEL508-508): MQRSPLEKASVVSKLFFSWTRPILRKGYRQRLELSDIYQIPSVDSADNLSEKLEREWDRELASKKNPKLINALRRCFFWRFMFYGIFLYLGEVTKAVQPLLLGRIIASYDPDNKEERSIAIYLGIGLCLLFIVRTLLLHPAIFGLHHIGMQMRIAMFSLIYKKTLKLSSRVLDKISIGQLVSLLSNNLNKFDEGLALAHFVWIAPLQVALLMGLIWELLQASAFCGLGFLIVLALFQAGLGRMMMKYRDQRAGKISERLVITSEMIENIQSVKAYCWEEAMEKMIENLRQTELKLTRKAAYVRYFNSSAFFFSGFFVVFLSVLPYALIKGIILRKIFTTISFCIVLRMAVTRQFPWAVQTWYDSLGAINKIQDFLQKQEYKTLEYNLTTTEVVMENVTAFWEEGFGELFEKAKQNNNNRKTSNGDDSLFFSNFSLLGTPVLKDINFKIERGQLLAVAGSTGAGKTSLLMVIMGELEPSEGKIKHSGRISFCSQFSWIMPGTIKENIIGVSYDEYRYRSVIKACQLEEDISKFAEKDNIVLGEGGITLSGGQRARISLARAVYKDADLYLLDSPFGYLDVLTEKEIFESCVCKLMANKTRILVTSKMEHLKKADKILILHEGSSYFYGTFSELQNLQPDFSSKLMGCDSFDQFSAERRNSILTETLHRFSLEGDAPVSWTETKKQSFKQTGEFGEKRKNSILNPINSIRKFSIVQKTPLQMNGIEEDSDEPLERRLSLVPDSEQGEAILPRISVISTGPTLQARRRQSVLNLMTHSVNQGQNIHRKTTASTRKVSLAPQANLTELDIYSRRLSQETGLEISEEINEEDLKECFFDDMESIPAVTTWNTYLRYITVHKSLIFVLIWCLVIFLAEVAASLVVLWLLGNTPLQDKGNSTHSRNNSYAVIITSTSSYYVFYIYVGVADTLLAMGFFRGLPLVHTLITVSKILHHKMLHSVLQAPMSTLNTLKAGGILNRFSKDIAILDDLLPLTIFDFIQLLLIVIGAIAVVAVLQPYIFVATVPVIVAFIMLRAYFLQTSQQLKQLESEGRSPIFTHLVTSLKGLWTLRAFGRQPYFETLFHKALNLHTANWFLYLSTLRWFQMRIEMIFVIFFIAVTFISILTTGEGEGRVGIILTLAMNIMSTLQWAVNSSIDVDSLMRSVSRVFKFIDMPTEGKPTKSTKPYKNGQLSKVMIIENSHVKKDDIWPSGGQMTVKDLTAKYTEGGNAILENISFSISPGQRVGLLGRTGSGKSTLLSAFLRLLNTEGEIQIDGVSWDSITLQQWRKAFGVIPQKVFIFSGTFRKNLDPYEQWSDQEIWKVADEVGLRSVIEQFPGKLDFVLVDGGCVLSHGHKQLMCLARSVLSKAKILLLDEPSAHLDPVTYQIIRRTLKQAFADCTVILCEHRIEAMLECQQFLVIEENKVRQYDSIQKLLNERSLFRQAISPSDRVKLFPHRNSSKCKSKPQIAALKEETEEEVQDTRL

SMILES | EC30
CC1CN(c2nc(C(C)(C)C)c(C3=CCC4(CC3)OCCO4)cc2C(=O)NS(=O)(=O)c2cccc(N)n2)C(C)(C)C1 (stereo not shown) [Compound 1459, N-[(6-amino-2-pyridyl)sulfonyl]-6-tert-butyl-5-(1,4-dioxaspiro[4.5]dec-8-en-8-yl)-2-(2,2,4-trimethylpyrrolidin-1-yl)pyridine-3-carboxamide] | +++ (“+++” means <3 uM)
Cc1cc(C)c(Oc2nc(C3=CC(C)(C)OCC3)ccc2C(=O)NS(=O)(=O)c2cccc(N)n2)c(C)c1 [Compound 1460, N-[(6-amino-2-pyridyl)sulfonyl]-6-(6,6-dimethyl-2,3-dihydropyran-4-yl)-2-(2,4,6-trimethylphenoxy)pyridine-3-carboxamide] | +++ (“+++” means <3 uM)
C[C@@H]1CN(c2nc(C3=CC(C)(C)CCC3=O)ccc2C(=O)NS(=O)(=O)c2cccc(N)n2)C(C)(C)C1 [Compound 1462, N-[(6-amino-2-pyridyl)sulfonyl]-6-(3,3-dimethyl-6-oxo-cyclohexen-1-yl)-2-[(4S)-2,2,4-trimethylpyrrolidin-1-yl]pyridine-3-carboxamide] | +++ (“+++” means <3 uM)
CC(C)COc1cc(F)cc(-c2ccc(C(=O)NS(=O)(=O)c3cccc(N)n3)c(OCCC3CCCCC3)n2)c1 [Compound 1465, N-[(6-amino-2-pyridyl)sulfonyl]-2-(2-cyclohexylethoxy)-6-(3-fluoro-5-isobutoxy-phenyl)pyridine-3-carboxamide] | +++ (“+++” means <3 uM)
CC(C)COc1cc(F)cc(-c2ccc(C(=O)NS(=O)(=O)N3CCC(N)C3)c(N3CC(C)CC3(C)C)n2)c1 (stereo not shown) [Compound 1467, N-(3-aminopyrrolidin-1-yl)sulfonyl-6-(3-fluoro-5-isobutoxy-phenyl)-2-(2,2,4-trimethylpyrrolidin-1-yl)pyridine-3-carboxamide] | +++ (“+++” means <3 uM)
Cc1cccc(C)c1Cn1nc(C(C)(C)C)cc1C(=O)NS(=O)(=O)c1ccco1 [Compound 1468, 5-tert-butyl-2-[(2,6-dimethylphenyl)methyl]-N-(2-furylsulfonyl)pyrazole-3-carboxamide] | +++ (“+++” means <3 uM)
CCOc1cccc2c1CN(Cc1c(C)cc(C)cc1C)C2(C)C(=O)NS(=O)(=O)c1cccc(OC)c1 (stereo not shown) [Compound 1470, 4-ethoxy-N-(3-methoxyphenyl)sulfonyl-1-methyl-2-[(2,4,6-trimethylphenyl)methyl]isoindoline-1-carboxamide] | +++ (“+++” means <3 uM)
COc1cc(OC)cc(-c2ccc(C(=O)NS(=O)(=O)c3cccc(N)n3)c(N3C[C@@H](C)CC3(C)C)n2)c1 [Compound 1471, N-[(6-amino-2-pyridyl)sulfonyl]-6-(3,5-dimethoxyphenyl)-2-[(4S)-2,2,4-trimethylpyrrolidin-1-yl]pyridine-3-carboxamide] | +++ (“+++” means <3 uM)
Cc1cc(N)nc(S(=O)(=O)NC(=O)c2ccc(-c3cc(F)cc(OCC(C)C)c3)nc2N2C[C@@H](C)CC2(C)C)c1 [Compound 1472, N-[(6-amino-4-methyl-2-pyridyl)sulfonyl]-6-(3-fluoro-5-isobutoxy-phenyl)-2-[(4S)-2,2,4-trimethylpyrrolidin-1-yl]pyridine-3-carboxamide] | +++ (“+++” means <3 uM)
CC(C)COc1cc(F)cc(-c2ccc(C(=O)NS(=O)(=O)c3cccc(N)n3)c(OC3CCCCC3)n2)c1 [Compound 1477, N-[(6-amino-2-pyridyl)sulfonyl]-2-(cyclohexoxy)-6-(3-fluoro-5-isobutoxy-phenyl)pyridine-3-carboxamide] | +++ (“+++” means <3 uM)
CC(C)COc1cc(F)cc(-c2ccc(C(=O)NS(=O)(=O)c3cccc(N)n3)c(OC3(Cc4ccccc4)CCC3)n2)c1 [Compound 1479, N-[(6-amino-2-pyridyl)sulfonyl]-2-(1-benzylcyclobutoxy)-6-(3-fluoro-5-isobutoxy-phenyl)pyridine-3-carboxamide] | +++ (“+++” means <3 uM)
CCOc1cccc2c1CN(Cc1c(C)cc(C)cc1C)C2(C)C(=O)NS(=O)(=O)c1ccc(N)cc1 (stereo not shown) [Compound 1480, N-(4-aminophenyl)sulfonyl-4-ethoxy-1-methyl-2-[(2,4,6-trimethylphenyl)methyl]isoindoline-1-carboxamide] | +++ (“+++” means <3 uM)

Results, then the molecule that gave them:

EC30 | SMILES
+++ (“+++” means <3 uM) | CC(C)COc1cc(F)cc(-c2ccc(C(=O)NS(=O)(=O)c3cccc(N)n3)c(OC3CC(F)(F)C3)n2)c1 [Compound 1458]
+++ (“+++” means <3 uM) | CC(=O)C1CC=C(c2cc(C(=O)NS(=O)(=O)c3cccc(N)n3)c(N3CC(C)CC3(C)C)nc2C(C)(C)C)CC1 (stereo not shown) [Compound 1461, 5-(4-acetylcyclohexen-1-yl)-N-[(6-amino-2-pyridyl)sulfonyl]-6-tert-butyl-2-(2,2,4-trimethylpyrrolidin-1-yl)pyridine-3-carboxamide]
+++ (“+++” means <3 uM) | CC(C)COc1cc(F)cc(-c2ccc(C(=O)NS(=O)(=O)c3cccc(N)n3)c(O[C@H]3CCOC3)n2)c1 [Compound 1464]
++ (“++” means between 3 uM and 10 uM) | Cc1cc(C)c(Oc2nc(C3CCOC(C)(C)C3)ccc2C(=O)NS(=O)(=O)c2cccc(N)n2)c(C)c1 (stereo not shown) [Compound 1466, N-[(6-amino-2-pyridyl)sulfonyl]-6-(2,2-dimethyltetrahydropyran-4-yl)-2-(2,4,6-trimethylphenoxy)pyridine-3-carboxamide]
++ (“++” means between 3 uM and 10 uM) | CC1CN(c2nc(C(C)(C)C)c(C3=CCCC4(C3)OCCO4)cc2C(=O)NS(=O)(=O)c2cccc(N)n2)C(C)(C)C1 (stereo not shown) [Compound 1469, N-[(6-amino-2-pyridyl)sulfonyl]-6-tert-butyl-5-(1,4-dioxaspiro[4.5]dec-8-en-9-yl)-2-(2,2,4-trimethylpyrrolidin-1-yl)pyridine-3-carboxamide]
+++ (“+++” means <3 uM) | CCOc1cc(C)n(-c2ccc(C(=O)NS(=O)(=O)c3cccc(N)n3)c(N3C[C@@H](C)CC3(C)C)n2)n1 [Compound 1473, N-[(6-amino-2-pyridyl)sulfonyl]-6-(3-ethoxy-5-methyl-pyrazol-1-yl)-2-[(4S)-2,2,4-trimethylpyrrolidin-1-yl]pyridine-3-carboxamide]
+++ (“+++” means <3 uM) | CCOc1cccc2c1CN(Cc1c(C)cc(C)cc1C)C2(C)C(=O)NS(=O)(=O)c1ccccn1 (stereo not shown) [Compound 1474, 4-ethoxy-1-methyl-N-(2-pyridylsulfonyl)-2-[(2,4,6-trimethylphenyl)methyl]isoindoline-1-carboxamide]
+++ (“+++” means <3 uM) | CCC1CCC(c2ccc(C(=O)NS(=O)(=O)c3cccc(N)n3)c(Oc3c(C)cc(C)cc3C)n2)CC1 (stereo not shown) [Compound 1475, N-[(6-amino-2-pyridyl)sulfonyl]-6-(4-ethylcyclohexyl)-2-(2,4,6-trimethylphenoxy)pyridine-3-carboxamide]
+++ (“+++” means <3 uM) | CCOc1cccc2c1CN(Cc1c(C)cc(C)cc1C)[C@@]2(C)C(=O)NS(=O)(=O)c1ccc[nH]c1=O [Compound 1476, (1R)-4-ethoxy-1-methyl-N-[(2-oxo-1H-pyridin-3-yl)sulfonyl]-2-[(2,4,6-trimethylphenyl)methyl]isoindoline-1-carboxamide]
+++ (“+++” means <3 uM) | Cc1cccc(C)c1Cn1nc(-c2ccc(OC(C)C)cc2)cc1C(=O)NS(=O)(=O)c1ccccc1 [Compound 1478, N-(benzenesulfonyl)-2-[(2,6-dimethylphenyl)methyl]-5-(4-isopropoxyphenyl)pyrazole-3-carboxamide]
